For experiment [1], the target named is T1, human recombinant PTP1B (1-302) (Homo sapiens, UniProt P18031).
T1 construct: The human recombinant PTP1B (1-302 aa) and LMW-PTP (full-length) were expressed as fusion proteins; polyhistidine (N); made in house; host or cells: E. coli BL21(DE3) pLysS
T1 sequence (P18031 1-302): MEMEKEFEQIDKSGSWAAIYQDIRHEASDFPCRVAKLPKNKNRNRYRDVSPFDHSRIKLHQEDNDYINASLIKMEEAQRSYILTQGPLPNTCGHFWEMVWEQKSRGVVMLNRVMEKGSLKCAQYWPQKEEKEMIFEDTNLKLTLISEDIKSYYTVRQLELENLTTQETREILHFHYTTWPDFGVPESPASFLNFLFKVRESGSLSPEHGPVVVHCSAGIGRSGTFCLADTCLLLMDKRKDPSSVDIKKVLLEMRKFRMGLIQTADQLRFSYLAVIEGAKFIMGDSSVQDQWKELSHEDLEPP
The experiment can be described thus: Reversibility of PTP1B inhibition, dilution assay. It is filed as biochemical. Here is the method:
(§1) The mixture was then extensively dialysed on Amicon ultrafiltration membrane (cut-off 3 KDa) against 10 mM sodium phosphate buffer, pH 7.0. After dialysis, the enzyme activity was again measured using 0.8 mM L-idose as substrate and compared to that of a mixture treated in the same conditions but in the absence of inhibitor. In order to evaluate the reversibility of the inhibitory action on PTP1B, 8 mU of PTP1B was incubated in the presence of a saturating concentration of PE (3 µM) and then incubated at 37 °C for 1 h. After this time, an aliquot of solution was withdrawn and extensively diluted in the assay buffer containing 2.5 mM of p-NPP. Residual activity of PTP1B was determined by calculating the amount of pNP released by measuring the absorbance of solution at 400 nm.
Figure S3. Determination of IC50 value for PE. An aliquot of PTP1B (8 mU) was incubated in the presence of increasing PE concentration in the assay buffer containing 2.5 mM pNPP. After 30 minutes, the reactions were stopped by adding 2 mL of 0.1 M KOH solution. The amount of p-NP released was determined using a spectrophotometer, measuring the absorbance of samples at 400 nm, using a 1cm path length cuvette. All tests were carried out in triplicate. Data obtained were normalized respect to control test and fitted using an opportune equation (see Material and method […]
Figure S4. Dilution assay. […]

Experiment [2] has as its target T2, human recombinant AR (Homo sapiens, UniProt P15121).
T2 construct: made in house; host or cells: E. coli BL21(DE3) pLysS
Put plainly: AR activity / inhibition assay (NADPH oxidation, L-idose as substrate). It is filed as biochemical. Here is the method: AR activity was determined at 37 °C, as previously described, evaluating the decrease in absorbance at 340 nm linked to NADPH oxidation using a Biochrom Libra S60 spectrophotometer. The standard assay mixture contained 0.25 M sodium phosphate buffer pH 6.8, 0.18 mM NADPH, 2.4 M ammonium sulphate, 0.5 mM EDTA, and 4.7 mM D,L-glyceraldehyde. One unit of enzyme activity is the amount that catalyses the conversion of 1 μmol of substrate/min in the above assay conditions. For AR inhibition studies, L-idose (at the indicated concentrations) was used as substrate in the conditions described above.
(§2) PE was dissolved in DMSO at a final concentration of 10 mM and added to the assay mixture containing 10 mU of purified AR (84 nM on the basis of a 34 KDa molecular weight) or 8 mU purified PTP1B (52 nM on the basis of a 36 KDa molecular weight). The reaction was started by the addition of the substrate. The DMSO concentration in the assays for AR determination was kept constant at 0.7 % (v/v) in order to avoid effects on AR activity. The inhibitory effect of PE was determined by measuring the reaction rates in the presence of a fixed substrate concentration (2.5 mM p-NPP and 0.8 mM L-idose for PTP1B and AR, respectively) and increasing inhibitor concentrations (at least 14-16 different concentrations). The IC50 (the inhibitor concentration able to decrease the enzymatic activity up to 50%) values were determined by nonlinear regression analysis using Prism GraphPad 6.0 (GraphPad Software, San Diego, CA, USA), fitting experimental data to the following equation: Vi/V0 = Max − Min/1 + x/IC50^slope + Min where Vi/V0 represents the relative activity calculated in presence of each inhibitor concentration; “Max” and “Min” represent the maximum and minimum value of the activity, respectively; “x” is the concentration of the inhibitor; and “slope” represents the slope of the curve in the transition zone.
(§3) In order to define the mechanism of action of PE, reaction rates were measured in assay mixtures containing different L-idose concentrations (between 0.8 and 6 mM) in the case of AR, and different p-NPP concentrations (between 0.5 and 25 mM) in the case of PTP1B, in the absence and in the presence of different PE concentrations. Data were analysed by Lineweaver–Burk plots. The apparent dissociation constants Ki’ (for the ESI complex) and Ki (for the EI complex) were determined from secondary plots of 1/^appVmax and ^appKM/^appVmax as a function of the inhibitor concentration, respectively.

The target of experiment [3] is T1, human recombinant PTP1B (1-302). Put plainly: PTP1B activity / inhibition assay (p-NPP hydrolysis). It is filed as biochemical. Here is the method:
PTP1B activity was determined as previously described. Briefly, each assay was started by adding an aliquot of human recombinant PTP1B (1-302) in the assay buffer (0.075 M β,β-dimethylglutarate pH 7.0, containing 1 mM EDTA, 0.1 mM DTT, and p-nitrophenylphosphate (p-NPP)). All reactions were performed at 37 °C in a final volume of 1 mL. After the incubation time, the reactions were stopped by adding 2 mL of 0.1 M KOH to the samples. The concentration of the released p-nitrophenol was determined by measuring the absorbance at 400 nm in a 1 cm pathlength cuvette. One unit of enzyme activity is the amount that catalyses the conversion of 1 μmol of substrate/min in the above assay conditions.
as §2, §3
Figure S3. Determination of IC50 value for PE. […] The amount of p-NP released was determined using a spectrophotometer, measuring the absorbance of samples at 400 nm, using a 1cm path length cuvette. […]

A further experiment has as its system HepG2 cells. Put plainly: Analysis of the insulin signalling pathway (Western blot of IR and Akt phosphorylation). The class given is cell-based. The conditions noted are these: HepG2, PE 25 µM combined with insulin 10 nM, 30 minutes. On the procedure: To evaluate whether PE is able to improve the insulin signalling pathway in vitro, we analysed the effect of the compound on HepG2 cell line. For this purpose, we treated HepG2 cells with PE (25 µM final concentration) for 30 minutes in the presence or absence of insulin (10 nM). After treatment, cells were lysed and cellular extracts were analysed to evaluate the phosphorylation status of insulin receptor (IR) and Akt, a kinase downstream IR (Figure 7).
Figure 7 Effect of PE on the insulin signalling pathway. Panel A: Western blot image; Panel B: quantitation of Western blot carried out using Kodak MI software. Data shown were normalized with respect to the control sample. All tests were carried out in triplicate. […]
In order to evaluate the effect of PE on the insulin signalling pathway, HepG2 cells were seeded in 35-mm culture dishes and, after 24 hours, were incubated for 30 minutes with starvation medium (DMEM supplemented with 2 mM glutamine, 100 U/mL penicillin, and 100 μg/mL streptomycin) containing 25 μM of PE and/or 10 nM insulin (Humalog, lispro insulin). […] Cellular extracts were boiled for 5 minutes, and then an aliquot (20 µg of protein) was analysed by SDS-PAGE and Western blot to evaluate both total and phosphorylated expression levels of Akt and IR. β-actin was used as a reference protein to normalise protein loading.
(In western blotting, separated proteins are transferred to a membrane and probed.)

Experiment [4] addresses T2, human recombinant AR. Put plainly: Reversibility of AR inhibition by dialysis. The class given is biochemical. On the procedure: as §1

The IC50 is the concentration needed to halve the response being measured. One may read the Ki as a dissociation constant, usually derived from enzyme kinetics or from competition with a known ligand. Take `CCCCCCCCCCCCCCC(OP(=O)(O)O)C(O)CCC(O)C(O)CCC(O)CCCCCCC(=O)NCC(=O)O` (centres unmarked) [PE, phosphoeleganin]: the “Reversibility of PTP1B inhibition” value in experiment [1] is listed as “reversible inhibitor”. For the same compound, the “PTP1B activity recovered after dilution” value in experiment [1] (incubation with saturating PE (3 µM) at 37 °C, then dilution in buffer with 2.5 mM p-NPP) is listed as “almost completely”. The IC50 was 28.7 ± 1.1 µM at human recombinant AR [2] (0.8 mM L-idose, pH 6.8, 37 °C, 10 mU AR) and 1.3 ± 0.04 µM in experiment [3] (2.5 mM p-NPP, pH 7.0, 37 °C, 8 mU PTP1B). Besides, on human recombinant AR [2] (Lineweaver–Burk analysis), the “Type of inhibition of AR” value is listed as “mixed inhibitor”. Besides, the “K'i (ESI complex) for AR” value on human recombinant AR [2] (secondary plot of 1/appVmax vs PE concentration, L-idose 0.8-6 mM) is 36 ± 1 µM. Moreover, the Ki on human recombinant AR [2] (secondary plot of appKM/appVmax vs PE concentration, L-idose 0.8-6 mM, read-out: Ki (EI complex) for AR) came out at 47 ± 1 µM; in experiment [3] (secondary plot of appKM/appVmax vs PE concentration, p-NPP 0.5-25 mM, read-out: Ki (EI complex) for PTP1B), 0.7 ± 0.1 µM. In experiment [3] (Lineweaver–Burk analysis), the “Type of inhibition of PTP1B” value is given as “pure non-competitive inhibitor”. Besides, in experiment [3] (secondary plot of 1/appVmax vs PE concentration, p-NPP 0.5-25 mM), the “K'i (ESI complex) for PTP1B” value is listed as 0.7 ± 0.1 µM. In addition, the Akt phosphorylation level result in the experiment on HepG2 cells is “significant increase”. In addition, the IR phosphorylation level result with HepG2 cells is “significant increase”. In addition, the “Reversibility of AR inhibition” value on human recombinant AR [4] is listed as “reversible inhibitor”. In addition, the “AR enzyme activity recovered after removal of inhibitor by extensive dialysis” value on human recombinant AR [4] (10 mU AR incubated 90 min at 0 °C with PE 3 mM, then dialysed, 0.8 mM L-idose) is 100%.

These data come from PMC8540617, “Dual Targeting of PTP1B and Aldose Reductase with Marine Drug Phosphoeleganin: A Promising Strategy for Treatment of Type 2 Diabetes” (Marine Drugs, 2021).
